# Test results taken from patent publication US20250122222A1, “HETEROCYCLIC COMPOUNDS AND METHODS OF USE” (AMGEN INC., priority 2021, published 2025).
# pIC50: −log10 of the molar value. Read-outs that look alike come from different tables or passages of the source.
# How the values were obtained:
# [1] = molecular target: His-tagged KRAS G12D protein (Homo sapiens, UniProt P01116, G12D); assay: KRAS G12D TR-FRET assay (binding); details: biotinylated KRPep-2d substrate, GDP in assay buffer
# Protocol: The plate was incubated for 30 minutes at room temperature. Biotinylated KRPep-2d substrate (Amgen) was diluted to 20 nM in Assay Buffer and 2 L was added to all wells and incubated for 1 hour at room temperature. Detection Reagent (0.4 nM LANCE Eu-W1024 Anti-6xHis (Perkin Elmer AD0401), 5 nM streptavidin-d^2 (Cisbio 610SADLA)) was prepared in Assay Buffer, then 4 μL was added to the plate and incubated for 1 hour at room temperature.
# [2] = tested on: Phosphorylation of ERK1/2 in AsPC-1 cells; assay: Phospho-ERK1/2 MSD assay; assay type: cell-based; details: for IC50: Homo sapiens, ASPC1, read-out: 2 h p-ERK (AsPC-1 cells), IC50 (μM), 2 hours compound treatment
# Protocol: Sixteen hours prior to compound treatment, AsPC-1 cells were seeded in 96-well cell culture plates at a density of 25,000 cells/well and incubated at 37° C., 5% CO2. A compound dose-response titration was diluted in growth media, added to appropriate wells of a cell culture plate, and then incubated at 37° C., 5% CO2 for 2 hours.
# His-tagged KRAS G12D protein, sequence (P01116 1-188 isoform P01116-2 G12D): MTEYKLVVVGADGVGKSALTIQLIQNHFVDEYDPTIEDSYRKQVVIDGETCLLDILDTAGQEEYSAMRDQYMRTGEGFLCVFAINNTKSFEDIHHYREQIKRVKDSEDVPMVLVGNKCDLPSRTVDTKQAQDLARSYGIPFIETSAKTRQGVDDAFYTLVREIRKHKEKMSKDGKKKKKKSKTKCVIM
Compound,pIC50 [1],IC50 [2] [µM],"pIC50 ([2]; read-out: 2 h p-ERK (AsPC-1 cells), IC50, 2 hours compound treatment)"
"CCc1c(F)ccc2cc(O)cc(-c3ncc4c(N5CCCOC(CO)C5)nc(OC[C@@]56CCCN5C[C@H](F)C6)nc4c3F)c12 (stereo partly drawn) [Example 56, 5-Ethyl-6-fluoro-4-(8-fluoro-2-(((2R, 7aS)-2-fluorotetra-hydro-1H-pyrrol-izin-7a(5H)-yl)-methoxy)-4-(2-(hydroxymethyl)-1,4-oxazepan-4-yl)pyrido[4,3-d]pyrimidin-7-yl)-naphthalen-2-ol]",8.52,0.081,–
"Oc1cc(Cl)c(C2CC2)c(-c2ncc3c(N4CCCOCC4)nc(OC[C@@]45CCCN4C[C@H](F)C5)nc3c2F)c1 [Example 18, 3-Chloro-4-cyclopropyl-5-(8-fluoro-2-(((2R,7aS)-2-fluorotetrahydro-1H-pyrrolizin-7a(5H)-yl)methoxy)-4-(1,4-oxazepan-4-yl)pyrido[4,3-d]pyrimidin-7-yl)phenol]",8.70,0.162,–
"CCc1cccc2cc(O)cc(-c3ncc4c(N5CCOCC(F)(F)C5)nc(OC[C@@]56CCCN5C[C@H](F)C6)nc4c3F)c12 [Example 7, 4-(4-(6,6-Difluoro-1,4-oxazepan-4-yl)-8-fluoro-2-(((2R,7aS)-2-fluorotetrahydro-1H-pyrrolizin-7a(5H)-yl)methoxy)pyrido [4,3-d]pyrimidin-7-yl)-5-ethylnaphthalen-2-ol]",8.70,0.046,–
"CCc1c(F)ccc2cc(O)cc(-c3ncc4c(N5CCOC[C@@H](OC)C5)nc(OC[C@@]56CCCN5C[C@H](F)C6)nc4c3F)c12 [Example 39, 5-Ethyl-6-fluoro-4-(8-fluoro-2-(((2R,7aS)-2-fluorotetrahydro-1H-pyrrolizin-7a(5H)-yl)methoxy)-4-((S)-6-methoxy-1,4-oxazepan-4-yl)pyrido[4,3-d]pyrimidin-7-yl)naphthalen-2-ol]",8.30,0.171,–
"CCc1c(F)ccc2cc(O)cc(-c3ncc4c(N5C[C@H]6COC[C@@H](C5)O6)nc(OC[C@@]56CCCN5C[C@H](F)C6)nc4c3F)c12 [Example 21, 4-(4-((1R,5S)-3,9-Dioxa-7-azabicyclo[3.3.1]nonan-7-yl)-8-fluoro-2-(((2R,7aS)-2-fluorotetrahydro-1H-pyrrolizin-7a(5H)-yl)methoxy)pyrido [4,3-d]pyrimidin-7-yl)-5-ethyl-6-fluoronaphthalen-2-ol]",7.96,0.621,–
"CCc1c(F)ccc2cc(O)cc(-c3ncc4c(N5CCCS(=O)(=O)C5)nc(OC[C@@]56CCCN5C[C@H](F)C6)nc4c3F)c12 [Example 62, 3-(7-(8-Ethyl-7-fluoro-3-hydroxy-naphthalen-1-yl)-8-fluoro-2-(((2R,7aS)-2-fluorotetrahydro-1H-pyrrolizin-7a(5H)-yl)meth-oxy)pyrido[4,3-d]pyrimidin-4-yl)-1,3-thiazinane 1,1-dioxide]",9.00,0.07,–
"CCc1c(F)ccc2cc(O)cc(-c3ncc4c(N5CCOC[C@](O)(CC)C5)nc(OC[C@@]56CCCN5C[C@H](F)C6)nc4c3F)c12 [Example 79, (S)-6-Ethyl-4-(7-(8-ethyl-7-fluoro-3-hydroxynaphthalen-1-yl)-8-fluoro-2-(((2R,7aS)-2-fluorotetrahydro-1H-pyrrolizin-7a(5H)-yl)methoxy)pyrido [4,3-d]pyrimidin-4-yl)-1,4-oxazepan-6-o1]",9.00,–,7.62
"CCc1c(F)ccc2cc(O)cc(-c3ncc4c(N5CCCSCC5)nc(OC[C@@]56CCCN5C[C@H](F)C6)nc4c3F)c12 [Example 5, 5-Ethyl-6-fluoro-4-(8-fluoro-2-(((2R,7aS)-2-fluorotetrahydro-1H-pyrrolizin-7a(5H)-yl)methoxy)-4-(1,4-thiazepan-4-yl)pyrido[4,3-d]pyrimidin-7-yl)naphthalen-2-ol]",8.70,0.088,–
"C#Cc1cccc2cc(O)cc(-c3ncc4c(N5CCCOCC5)nc(OC[C@@H]5C[C@@H](F)CN5C)nc4c3F)c12 [Example 12, 5-Ethynyl-4-(8-fluoro-2-(((2S,4R)-4-fluoro-1-methylpyrrolidin-2-yl)methoxy)-4-(1,4-oxazepan-4-yl)pyrido[4,3-d]pyrimidin-7-yl)naphthalen-2-ol]",8.40,0.131,–
"Oc1cc(Cl)c(C2CC2)c(-c2ncc3c(N4CCCOCC4)nc(OCC4(CN5CCOCC5)CC4)nc3c2F)c1 [Example 22, 3-Chloro-4-cyclopropyl-5-(8-fluoro-2-((1-(morpholinomethyl)cyclopropyl)methoxy)-4-(1,4-oxazepan-4-yl)pyrido[4,3-d]pyrimidin-7-yl)phenol]",7.96,1.29,–
"CCc1c(F)ccc2cc(O)cc(-c3ncc4c(N5CCCOCC5)nc(OC[C@@H]5C[C@@H](F)CN5C)nc4c3F)c12 [Example 9, 5-Ethyl-6-fluoro-4-(8-fluoro-2-(((2S,4R)-4-fluoro-1-methylpyrrolidin-2-yl)methoxy)-4-(1,4-oxazepan-4-yl)pyrido[4,3-d]pyrimidin-7-yl)naphthalen-2-ol]",8.10,0.353,–
